Several values for one entry are separate records, joined by “and”; a condition that tells them apart may be missing. Equal entries are not always repeated.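 Interpolation was linear, between the two tested concentrations surrounding the appropriate level; five concentrations were tested over 48 hours in 96-well plates. At the GI50, growth is halved. The concentration for full growth arrest is given as TGI.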
How the values were obtained:
Assay in all cases: NCI tumour cell line growth inhibition, 48 h
SK-MEL-5 melanoma = system: SK-MEL-5 melanoma
TK-10 renal = system: TK-10 renal
HOP-92 NSCLC = system: HOP-92 NSCLC
SF-539 CNS = system: SF-539 CNS
NCI-H460 lung = system: NCI-H460 lung
CCRF-CEM leukemia = system: CCRF-CEM leukemia
SF-268 CNS = system: SF-268 CNS
OVCAR-5 ovarian = system: OVCAR-5 ovarian
ACHN renal = system: ACHN renal
MALME-3M melanoma = system: MALME-3M melanoma

| SMILES | GI50 (SK-MEL-5 melanoma) [nM] | TGI (SK-MEL-5 melanoma) [nM] | GI50 (TK-10 renal) [nM] | TGI (TK-10 renal) [nM] | GI50 (HOP-92 NSCLC) [nM] | TGI (HOP-92 NSCLC) | GI50 (SF-539 CNS) [nM] | TGI (SF-539 CNS) | GI50 (NCI-H460 lung) [nM] | TGI (NCI-H460 lung) [nM] | GI50 (CCRF-CEM leukemia) [nM] | TGI (CCRF-CEM leukemia) | GI50 (SF-268 CNS) [nM] | TGI (SF-268 CNS) [nM] | GI50 (OVCAR-5 ovarian) [nM] | TGI (OVCAR-5 ovarian) [nM] | GI50 (ACHN renal) [nM] | TGI (ACHN renal) [nM] | GI50 (MALME-3M melanoma) [nM] | TGI (MALME-3M melanoma) |
| --- | --- | --- | --- | --- | --- | --- | --- | --- | --- | --- | --- | --- | --- | --- | --- | --- | --- | --- | --- | --- |
| CC1CCc2c(C(=O)Nc3ncc(Cc4cccc([N+](=O)[O-])c4)s3)csc2C1 (stereo not given) | 476 | > 100000 | 5040 | > 100000 | 2680 | > 100000 nM | 548 | 1930 nM | 491 | > 100000 | 612 | > 100000 nM | 1530 | > 100000 | 1560 | > 100000 | 937 | > 100000 | 1000 | > 100000 nM |
| C=C1C(C)C2C(Cc3ccccc3)NC(=O)C23C(OC(C)=O)C=CC(C)(O)C(=O)C(C)C/C=C/C3C1O (stereo not given) | 2170 | – | 732 | – | 171 | 2450 nM and 1210 nM | 208 | 2770 nM and 1220 nM | 291 | > 295000 | 15400 | 78800 nM and > 500000 nM | 698 | – | – | > 500000 | 1280 | > 196000 | 61700 | > 96700 nM and 489000 nM |
| O=C1c2ccc3c4c(ccc(c24)C(=O)N1CCCCO)C(=O)N(CCCCO)C3=O | 388 | 1480 | 5290 | 32500 | 3510 | 7980 nM | 1450 | 3870 nM | 1120 | 4750 | 2740 | > 100000 nM | 2090 | 11500 | 1570 | 4060 | 920 | 5180 | 254 | 1020 nM |
| Cc1cnc(C(=O)Nc2nc3ccc(S(=O)(=O)Nc4ccc(C(C)(C)C)cc4)cc3[nH]2)cn1 | 330 | 7090 | 2530 | 15200 | 553 | 7240 nM | 333 | 1870 nM | 370 | 2020 | 415 | 14500 nM | 759 | 13600 | 1410 | 10700 | 518 | 14200 | 590 | 14500 nM |
| N#Cc1cnn(C(=O)c2nn(-c3ccc(Cl)cc3)cc2O)c1N | 464 | 2510 | 267 | 7340 | 405 | 27300 nM | 323 | 7850 nM | 189 | 507 | 279 | 4030 nM | 439 | 23800 | 610 | 21600 | 322 | 12500 | 926 | 13600 nM |
| CCOC(=O)Nc1cc2c(c(N)n1)N=C(c1ccc(Cl)cc1Cl)CN2 | – | 999 | – | 35400 | – | 44700 nM | – | 47.5 nM | – | 6300 | – | > 100000 nM | – | 25500 | – | 45100 | – | 20800 | – | 29600 nM |
| NP1(Oc2ccc(F)cc2)=NP(N)(Oc2ccc(F)cc2)=NP(Oc2ccc(F)cc2)(Oc2ccc(F)cc2)=N1 (stereo not given) | – | 17800 | – | 12300 | – | 15400 nM | – | 27500 nM | – | 13500 | – | 18900 nM | – | 26700 | – | 23700 | – | 12100 | – | 18700 nM |
| COc1cc(OC)c(/C=C/S(=O)(=O)Cc2ccc(OC)c(N)n2)c(OC)c1 | < 10 | 11.6 | > 100000 | > 100000 | 93 | > 100000 nM | < 10 | < 10 nM | < 10 | – | < 15.7 | > 100000 nM | < 10 | > 100000 | < 25.6 | > 100000 | < 10 | > 100000 | > 100000 | > 100000 nM |
